Assay results from patent publication US20230017045A1, “PYRIDINE AND PYRIMIDINE CARBOXYLATE HERBICIDES AND METHODS OF USE THEREOF” (Dow AgroSciences LLC, priority 2017, published 2023).

System: test plant species
Assay: Post-emergent herbicidal activity test (greenhouse, foliar spray, visual growth reduction)
Assay type: in vivo
Conditions: post-emergence, 336 h, ECHCG: barnyardgrass (Echinochloa crus-galli), 140 g ai/ha, 14 days after application, read-out: Visual Growth Reduction (%) 14 Days After Application, ECHCG
Experimental: Post-emergent Test: Seeds or nutlets of the desired test plant species were planted in Sun Gro Metro-Mix® 360 planting mixture, which typically has a pH of 6.0 to 6.8 and an organic matter content of about 30 percent, in plastic pots with a surface area of 64 square centimeters. In some aspects, to ensure good germination and healthy plants, a fungicide treatment and/or other chemical or physical treatment was applied. The plants were grown for 7-21 d in a greenhouse with an approximate 15 h photoperiod which was maintained at 23-29° C. during the day and 22-28° C. during the night. Nutrients and water were added on a regular basis and supplemental lighting was provided with overhead metal halide 1000-Watt lamps as necessary. Plants were used for testing when they reached the first or second true leaf stage. A weighed amount, determined by the highest rate to be tested, of each test compound was placed in a 25 mL glass vial and was dissolved in 4 mL of a 97:3 v/v mixture of acetone and DMSO to obtain concentrated stock solutions. […] The concentrated stock solutions obtained were diluted with 20 mL of an aqueous mixture containing acetone, water, isopropyl alcohol, DMSO, […] crop oil concentrate, and X-77 surfactant in a 48.5:39:10:1.5:1.0:0.02 v/v ratio to obtain spray solutions containing the application rate. Compound requirements are based upon a 12 mL application volume at a rate of 187 liters per hectare (L/ha). Formulated compounds were applied to the plant material with an overhead Mandel track sprayer equipped with […] nozzles calibrated to deliver 187 L/ha over an application area of 0.64 square meters at a spray height of 18 inches (43 cm) above the average plant canopy height. Control plants were sprayed in the same manner with the solvent blank. The treated plants and control plants were placed in a greenhouse as described above and watered by subirrigation to prevent wash-off of the test compounds. After 14 d, the condition of the test plants as compared with that of the nontreated and control plants was determined visually and scored on a scale of 0 to 100 percent where 0 corresponds to no injury and 100 corresponds to complete control. In the reporting of the results, Table A: Percent Growth Reduction Conversion Table was used.

| Structure (SMILES) | pest or weed control at 140 g/ha [%] |
| --- | --- |
| COC(=O)c1nc(-c2ccc(C(F)(F)F)c(Br)c2Cl)c(F)cc1Cl [F341, Methyl 6-(3-bromo-2-chloro-4-(trifluoromethyl)phenyl)-3-chloro-5-fluoropicolinate] | 0 to 29 |
| COC(=O)c1nc(-c2cc(OC)c(C(F)(F)F)cc2Cl)c(F)cc1Cl [F331, Methyl 3-chloro-6-(2-chloro-5-methoxy-4-(trifluoromethyl)phenyl)-5-fluoropicolinate] | 0 to 29 |

Same assay, conditions: post-emergence, 336 h, IPOHE: ivy-leaf morning glory (Ipomoea hederacea), 140 g ai/ha, 14 days after application, read-out: Visual Growth Reduction (%) 14 Days After Application, IPOHE

| Structure (SMILES) | pest or weed control at 140 g/ha [%] |
| --- | --- |
| COC(=O)c1nc(-c2ccc(C(F)(F)F)c(Br)c2Cl)c(F)cc1Cl [F341, Methyl 6-(3-bromo-2-chloro-4-(trifluoromethyl)phenyl)-3-chloro-5-fluoropicolinate] | 95 to 100 |
| COC(=O)c1nc(-c2cc(OC)c(C(F)(F)F)cc2Cl)c(F)cc1Cl [F331, Methyl 3-chloro-6-(2-chloro-5-methoxy-4-(trifluoromethyl)phenyl)-5-fluoropicolinate] | 95 to 100 |

Same assay, conditions: post-emergence, 336 h, KCHSC: kochia (Bassia scoparia), 140 g ai/ha, 14 days after application, read-out: Visual Growth Reduction (%) 14 Days After Application, KCHSC

| Structure (SMILES) | pest or weed control at 140 g/ha [%] |
| --- | --- |
| COC(=O)c1nc(-c2ccc(C(F)(F)F)c(Br)c2Cl)c(F)cc1Cl [F341, Methyl 6-(3-bromo-2-chloro-4-(trifluoromethyl)phenyl)-3-chloro-5-fluoropicolinate] | 60 to 74 |
| COC(=O)c1nc(-c2cc(OC)c(C(F)(F)F)cc2Cl)c(F)cc1Cl [F331, Methyl 3-chloro-6-(2-chloro-5-methoxy-4-(trifluoromethyl)phenyl)-5-fluoropicolinate] | 60 to 74 |

Same assay, conditions: post-emergence, 336 h, ORYSA: rice (Oryza sativa), 140 g ai/ha, 14 days after application, read-out: Visual Growth Reduction (%) 14 Days After Application, ORYSA

| Structure (SMILES) | pest or weed control at 140 g/ha [%] |
| --- | --- |
| COC(=O)c1nc(-c2ccc(C(F)(F)F)c(Br)c2Cl)c(F)cc1Cl [F341, Methyl 6-(3-bromo-2-chloro-4-(trifluoromethyl)phenyl)-3-chloro-5-fluoropicolinate] | 0 to 29 |
| COC(=O)c1nc(-c2cc(OC)c(C(F)(F)F)cc2Cl)c(F)cc1Cl [F331, Methyl 3-chloro-6-(2-chloro-5-methoxy-4-(trifluoromethyl)phenyl)-5-fluoropicolinate] | 0 to 29 |

Same assay, conditions: post-emergence, 336 h, SETFA: giant foxtail (Setaria faberi), 140 g ai/ha, 14 days after application, read-out: Visual Growth Reduction (%) 14 Days After Application, SETFA

| Structure (SMILES) | pest or weed control at 140 g/ha [%] |
| --- | --- |
| COC(=O)c1nc(-c2ccc(C(F)(F)F)c(Br)c2Cl)c(F)cc1Cl [F341, Methyl 6-(3-bromo-2-chloro-4-(trifluoromethyl)phenyl)-3-chloro-5-fluoropicolinate] | 85 to 94 |
| COC(=O)c1nc(-c2cc(OC)c(C(F)(F)F)cc2Cl)c(F)cc1Cl [F331, Methyl 3-chloro-6-(2-chloro-5-methoxy-4-(trifluoromethyl)phenyl)-5-fluoropicolinate] | 0 to 29 |

Same assay, conditions: post-emergence, 336 h, SORVU: grain sorghum (Sorghum vulgare), 140 g ai/ha, 14 days after application, read-out: Visual Growth Reduction (%) 14 Days After Application, SORVU

| Structure (SMILES) | pest or weed control at 140 g/ha [%] |
| --- | --- |
| COC(=O)c1nc(-c2ccc(C(F)(F)F)c(Br)c2Cl)c(F)cc1Cl [F341, Methyl 6-(3-bromo-2-chloro-4-(trifluoromethyl)phenyl)-3-chloro-5-fluoropicolinate] | 95 to 100 |
| COC(=O)c1nc(-c2cc(OC)c(C(F)(F)F)cc2Cl)c(F)cc1Cl [F331, Methyl 3-chloro-6-(2-chloro-5-methoxy-4-(trifluoromethyl)phenyl)-5-fluoropicolinate] | 45 to 59 |

Same assay, conditions: post-emergence, 336 h, STEME: common chickweed (Stellaria media), 140 g ai/ha, 14 days after application, read-out: Visual Growth Reduction (%) 14 Days After Application, STEME

| Structure (SMILES) | pest or weed control at 140 g/ha [%] |
| --- | --- |
| COC(=O)c1nc(-c2ccc(C(F)(F)F)c(Br)c2Cl)c(F)cc1Cl [F341, Methyl 6-(3-bromo-2-chloro-4-(trifluoromethyl)phenyl)-3-chloro-5-fluoropicolinate] | 30 to 44 |
| COC(=O)c1nc(-c2cc(OC)c(C(F)(F)F)cc2Cl)c(F)cc1Cl [F331, Methyl 3-chloro-6-(2-chloro-5-methoxy-4-(trifluoromethyl)phenyl)-5-fluoropicolinate] | 0 to 29 |

Same assay, conditions: post-emergence, 336 h, TRZAS: wheat, spring (Triticum aestivum), 140 g ai/ha, 14 days after application, read-out: Visual Growth Reduction (%) 14 Days After Application, TRZAS

| Structure (SMILES) | pest or weed control at 140 g/ha [%] |
| --- | --- |
| COC(=O)c1nc(-c2ccc(C(F)(F)F)c(Br)c2Cl)c(F)cc1Cl [F341, Methyl 6-(3-bromo-2-chloro-4-(trifluoromethyl)phenyl)-3-chloro-5-fluoropicolinate] | 45 to 59 |
| COC(=O)c1nc(-c2cc(OC)c(C(F)(F)F)cc2Cl)c(F)cc1Cl [F331, Methyl 3-chloro-6-(2-chloro-5-methoxy-4-(trifluoromethyl)phenyl)-5-fluoropicolinate] | 0 to 29 |

Same assay, conditions: post-emergence, 336 h, blackgrass (Alopecurus myosuroides), 14 Days After Application, 140 g ai/ha, read-out: Visual Growth Reduction (%) ALOMY

| Structure (SMILES) | pest or weed control at 140 g/ha [%] |
| --- | --- |
| COC(=O)c1nc(-c2ccc(C(F)(F)F)c(Br)c2Cl)c(F)cc1Cl [F341, Methyl 6-(3-bromo-2-chloro-4-(trifluoromethyl)phenyl)-3-chloro-5-fluoropicolinate] | 30 to 44 |
| COC(=O)c1nc(-c2cc(OC)c(C(F)(F)F)cc2Cl)c(F)cc1Cl [F331, Methyl 3-chloro-6-(2-chloro-5-methoxy-4-(trifluoromethyl)phenyl)-5-fluoropicolinate] | 0 to 29 |

Same assay, conditions: post-emergence, 336 h, crabgrass (Digitaria sanguinalis), 14 Days After Application, 140 g ai/ha, read-out: Visual Growth Reduction (%) DIGSA

| Structure (SMILES) | pest or weed control at 140 g/ha [%] |
| --- | --- |
| COC(=O)c1nc(-c2ccc(C(F)(F)F)c(Br)c2Cl)c(F)cc1Cl [F341, Methyl 6-(3-bromo-2-chloro-4-(trifluoromethyl)phenyl)-3-chloro-5-fluoropicolinate] | 85 to 94 |
| COC(=O)c1nc(-c2cc(OC)c(C(F)(F)F)cc2Cl)c(F)cc1Cl [F331, Methyl 3-chloro-6-(2-chloro-5-methoxy-4-(trifluoromethyl)phenyl)-5-fluoropicolinate] | 0 to 29 |

Same assay, conditions: post-emergence, 336 h, lambsquarters (Chenopodium album), 14 Days After Application, 140 g ai/ha, read-out: Visual Growth Reduction (%) CHEAL

| Structure (SMILES) | pest or weed control at 140 g/ha [%] |
| --- | --- |
| COC(=O)c1nc(-c2ccc(C(F)(F)F)c(Br)c2Cl)c(F)cc1Cl [F341, Methyl 6-(3-bromo-2-chloro-4-(trifluoromethyl)phenyl)-3-chloro-5-fluoropicolinate] | 85 to 94 |
| COC(=O)c1nc(-c2cc(OC)c(C(F)(F)F)cc2Cl)c(F)cc1Cl [F331, Methyl 3-chloro-6-(2-chloro-5-methoxy-4-(trifluoromethyl)phenyl)-5-fluoropicolinate] | 45 to 59 |

Same assay, conditions: post-emergence, 336 h, redroot pigweed (Amaranthus retroflexus), 14 Days After Application, 140 g ai/ha, read-out: Visual Growth Reduction (%) AMARE

| Structure (SMILES) | pest or weed control at 140 g/ha [%] |
| --- | --- |
| COC(=O)c1nc(-c2ccc(C(F)(F)F)c(Br)c2Cl)c(F)cc1Cl [F341, Methyl 6-(3-bromo-2-chloro-4-(trifluoromethyl)phenyl)-3-chloro-5-fluoropicolinate] | 95 to 100 |
| COC(=O)c1nc(-c2cc(OC)c(C(F)(F)F)cc2Cl)c(F)cc1Cl [F331, Methyl 3-chloro-6-(2-chloro-5-methoxy-4-(trifluoromethyl)phenyl)-5-fluoropicolinate] | 45 to 59 |

Same assay, conditions: post-emergence, 336 h, wild oat (Avena fatua), 14 Days After Application, 140 g ai/ha, read-out: Visual Growth Reduction (%) AVEFA

| Structure (SMILES) | pest or weed control at 140 g/ha [%] |
| --- | --- |
| COC(=O)c1nc(-c2ccc(C(F)(F)F)c(Br)c2Cl)c(F)cc1Cl [F341, Methyl 6-(3-bromo-2-chloro-4-(trifluoromethyl)phenyl)-3-chloro-5-fluoropicolinate] | 45 to 59 |
| COC(=O)c1nc(-c2cc(OC)c(C(F)(F)F)cc2Cl)c(F)cc1Cl [F331, Methyl 3-chloro-6-(2-chloro-5-methoxy-4-(trifluoromethyl)phenyl)-5-fluoropicolinate] | 0 to 29 |

Same assay, conditions: post-emergence, 336 h, yellow nutsedge (Cyperus esculentus), 14 Days After Application, 140 g ai/ha, read-out: Visual Growth Reduction (%) CYPES

| Structure (SMILES) | pest or weed control at 140 g/ha [%] |
| --- | --- |
| COC(=O)c1nc(-c2ccc(C(F)(F)F)c(Br)c2Cl)c(F)cc1Cl [F341, Methyl 6-(3-bromo-2-chloro-4-(trifluoromethyl)phenyl)-3-chloro-5-fluoropicolinate] | 0 to 29 |
| COC(=O)c1nc(-c2cc(OC)c(C(F)(F)F)cc2Cl)c(F)cc1Cl [F331, Methyl 3-chloro-6-(2-chloro-5-methoxy-4-(trifluoromethyl)phenyl)-5-fluoropicolinate] | 0 to 29 |
